Assay results as given in US20200155650A1, “Combination treatment of NAFLD and NASH” (CymaBay Therapeutics, Inc., priority 2018, published 2020).

Assays:
[1] = test system: subjects with liver biopsy-proven NASH; test: Example 3, clinical, single agent seladelpar in biopsy-proven NASH; format: in vivo, human; conditions: 10, 20, and 50 mg/day for 52 weeks
Description: One hundred seventy-five subjects with liver biopsy-proven NASH are treated with doses of 10, 20, and 50 mg/day, or placebo (2:2:2:1 randomization) for 52 weeks. Subjects are permitted their usual other medications (e.g. antidiabetic medications such as metformin or […]) but not glitazones, PPAR agonists, OCA, or similar medications. […] The primary efficacy outcome is the change in baseline in liver fat content at 12 weeks, as measured by magnetic resonance imaging-derived proton density fat fraction (MRI-PDFF). Other outcome measures include histological improvement in NASH and fibrosis, assessed by comparing liver biopsy samples at baseline and at 52 weeks after the start of dosing; MRI-PDFF at 26 and 52 weeks; and measurements of total cholesterol, HDL-C, LDL-C, VLDL-C, TGs, apoB, and liver transaminases. The subjects also maintain health diaries, which are reviewed at each visit.

[2] = test system: Alms1 mutant (fozlfoz) mice; conditions: 10 mg/Kg by gavage for 8 weeks, cited from earlier work
[3] = target: T1, PPARα (Homo sapiens, UniProt Q07869); conditions: cited from earlier work
T1 sequence (Q07869 1-468): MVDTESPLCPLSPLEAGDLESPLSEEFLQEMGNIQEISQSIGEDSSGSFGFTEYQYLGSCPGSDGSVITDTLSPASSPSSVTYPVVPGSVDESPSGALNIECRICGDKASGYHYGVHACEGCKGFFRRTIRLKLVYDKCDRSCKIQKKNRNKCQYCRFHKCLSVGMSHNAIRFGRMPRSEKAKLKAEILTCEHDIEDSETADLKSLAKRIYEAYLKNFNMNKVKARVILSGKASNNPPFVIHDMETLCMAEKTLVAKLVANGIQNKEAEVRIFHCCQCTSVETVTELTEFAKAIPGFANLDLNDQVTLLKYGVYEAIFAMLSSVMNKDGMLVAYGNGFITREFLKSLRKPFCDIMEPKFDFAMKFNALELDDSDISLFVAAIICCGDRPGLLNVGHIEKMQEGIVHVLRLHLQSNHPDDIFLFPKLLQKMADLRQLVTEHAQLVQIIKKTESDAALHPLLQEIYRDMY

Question: With `CCO[C@H](COc1ccc(C(F)(F)F)cc1)CSc1ccc(OCC(=O)O)c(C)c1` [Seladelpar, (R)-2-(4-((2-ethoxy-3-(4-(trifluoromethyl)phenoxy)propyl)-sulfanyl)-2-methylphenoxy)acetic acid] as the compound, how does the “improvement in disease (MRI-PDFF, liver biopsy, NAS score)” value [1] read?
Answer: The value was “dose-related improvement in their disease”.

Question: And the “mean nonalcoholic fatty liver disease activity score (NAS)” value ([2]; vehicle 6.9)?
Answer: Its value is 3.13.

Question: And the “reduction of serum alanine aminotransferase” value ([2]; vehicle 300-600 U/L)?
Answer: The value was 50%.

Question: What about the “hyperglycemia, hyperinsulinemia, and glucose disposal” value [2] of the same compound?
Answer: Its value is “normalized”.

Question: With `CSc1ccc(C(=O)/C=C/c2cc(C)c(OC(C)(C)C(=O)O)c(C)c2)cc1` [elafibranor] as the compound, how does the EC50 [3] read?
Answer: Its EC50 is 6 nM.
